Holding throughout (format): cell-based, human
Assay [1] deals with collagen and thrombin activated platelets. The assay is described as follows: cells. The procedure:
(§1) Platelet isolation was performed as described.^10 Briefly, 10 milliliters (mL) blood was collected in 2 mL anticoagulant ACD (80 mmol/L trisodium citrate, 52 mmol/L citric acid and 180 mmol/L glucose). Platelet rich plasma was obtained by centrifuging whole blood for 15 minutes at 200 g. Platelets were spun down at 11,500× gravity for 2 minutes using a microfuge. The platelet pellet was resuspended and washed twice with 10 mmol/L HEPES, 137 mmol/L NaCl, 2.7 mmol/L KCl, 2 mmol/L MgCl2, 5 mmol/L glucose and 0.5 mg/mL BSA, adjusted at pH 6.6); before each centrifugation step, 100 μL ACD was added to each mL resuspended platelets. Finally, platelets were resuspended in HEPES buffer at pH 7.4. Platelet count was adjusted at 2×10^8 platelets/mL. For measurement of the intracellular Ca^2+ concentration ([Ca^2+]i), platelets were loaded with Fura-2 (3 μmol/L) during 45 minutes at 37° C., prior to isolation.
Platelet activation was performed at 37° C. at a concentration of 10^7 platelets/mL in a volume of 0.5 mL under continuous stirring in the presence of 3 mmol/L CaCl2. Platelet agonists used were thrombin (5 nmol/L) plus collagen (10 μg/mL) or ionomycin (1 μmol/L). The effect of different inhibitors was studied by pre-treatment of platelets with the various agents for 30 minutes before starting the activation procedure. For the effects of high extracellular [K^+], platelet suspensions were diluted 20-fold to a concentration of […] in a modified HEPES buffer, referred to as HEPES/KCl buffer (10 mmol/L HEPES, 19.7 mmol/L NaCl, 120 mmol/L KCl, 2 mmol/L MgCl2, 5 mmol/L glucose and 0.5 mg/mL BSA, pH 7.4), activated and assayed for thrombin generation as described before. In some experiments, HEPES buffer was used in which 120 mmol/L NaCl was replaced by 120 mmol/L choline chloride (10 mmol/L HEPES, 17 mmol/L NaCl, 120 mmol/L choline chloride, 2.7 mmol/L KCl, 2 mmol/L MgCl2, 5 mmol/L glucose and 0.5 mg/mL BSA, pH 7.4), referred to as HEPES/Choline buffer.
(§2) Platelet procoagulant activity was assayed as described in more detail elsewhere.^9 Briefly, after activation of 10^7 platelets/mL with collagen (10 μg/mL) and thrombin (4 nmol/L) for 10 minutes, samples were taken and diluted to 10^6 platelets/mL in HEPES buffer containing 3 mmol/L CaCl2 and 0.5 mg/mL BSA. The samples were incubated with 0.2 nmol/L factor Xa and 2 nmol/L factor Va for 1 minute at 37° C. Thrombin formation was initiated by addition of 1 μmol/L prothrombin and arrested after 2 minutes by addition of 10 mmol/L EDTA. Thrombin was measured using the chromogenic substrate S2238.
FIG. 2. illustrates the effect of potassium channel inhibitors on collagen plus thrombin induced platelet procoagulant activity. Platelets at 10^7 ml^−1 were preincubated with various inhibitors for 30 minutes followed by activation with collagen (10 μg/ml) plus thrombin (4 nmol/L) for 10 minutes. Samples from these incubations were diluted 10-fold in HEPES buffer containing 3 mmol/L CaCl2 and subsequently analyzed for prothrombinase activity (A) or percentage of annexin-positive cells (B) as described in the Materials and Methods section above. Valinomycin was added 5 minutes prior to activation of the platelets (to avoid long term effects of this ionophore). Black bars: absence of valinomycin; hatched bars: presence of valinomycin. […] Student's t-test was used to compare data in the presence and absence of valinomycin.

Assay [2] concerns collagen plus thrombin activated platelets. The assay is described as follows: Flow cytometry, binding of FITC-conjugated annexin A5 (PS exposure). The procedure:
as §1
Platelet activation was performed at 37° C. at a concentration of 10^7 platelets/mL in a volume of 0.5 mL under continuous stirring in the presence of 3 mmol/L CaCl2. Platelet agonists used were thrombin (5 nmol/L) plus collagen (10 μg/mL) or ionomycin (1 μmol/L). […]
Samples for flow cytometry were taken simultaneously with samples for the prothrombinase assay from the platelet incubations after 10 minutes activation. To measure PS exposure, samples were diluted 10-fold in HEPES buffer containing 3 mmol/L CaCl2 and incubated with FITC-conjugated Annexin A5 (final concentration 10 nmol/L) for 5 minutes and analyzed for light scatter and fluorescence by a Coulter Epics XL-MLC™ flow cytometer. Light scatter and fluorescence channels were set at logarithmic gain. Scatter parameters and fluorescence intensities were obtained from 10,000 platelets and analyzed off-line using WinMDI version 2.8 software (http://facs.scripps.edu/software.html). Ionomycin activated platelets were used to set a marker for fluorescence intensity of annexin-positive platelets to measure the percentage of annexin-positive platelets after the various incubation procedures. […]
(A flow cytometer gives signals particle by particle.)

For assay [3], the system named is platelets, collagen plus thrombin induced aggregation. Put plainly: Platelet aggregation (Chronolog aggregometer). The procedure:
(§3) Aggregation was measured at 37° C. in 450 μL samples of a platelet suspension of 2×10^8/mL using an automated model 400 Chronolog aggregometer (Chronolog Corporation, Chicago, USA). After stirring for 2 minutes at 300 rpm, CaCl2 (3 mmol/L) was added, 1 minute later followed by simultaneous addition of 10 μg/mL collagen and 4 nmol/L thrombin. The resulting aggregation was recorded for 5 minutes after which 50 μL ATP-reagent (Boehringer Mannheim ATP Bioluminescence Assay Kit HS II) was added to quantify the release reaction.

The test system of assay [4] is platelets, collagen plus thrombin induced release of ATP. The assay is described as follows: Platelet release reaction (ATP bioluminescence). The procedure: as §3
In assay [5] the test system is collagen plus thrombin activated platelets. Put plainly: Measurement of [Ca2+]i of Fura-2-loaded platelets in suspension. The procedure: as §1
Platelets (5×10^7/mL) were incubated with K^+ channel inhibitors for 5 minutes, followed by the addition of tirofiban (5 μg/mL) and Ca^2+ (3 mmol/L) and incubated for an additional 5 minutes under stirring conditions. Collagen (10 μg/mL) plus thrombin (5 nmol/L) were then added simultaneously. Changes in [Ca^2+]i of Fura-2-loaded platelets were measured under continuous stirring by dual excitation fluorometry in an SLM-Aminco 8100 spectrofluorimeter (SLM Instruments). Ratio values of fluorescence at 340 and 380 nm excitation, obtained 5 minutes after activation with collagen plus thrombin, were converted to levels of [Ca^2+]i as described.^14 Experiments were performed in triplicate at 37° C.

The subject of assay [6] is platelets, tetracaine-induced PS exposure. The assay is described as follows: Tetracaine-induced prothrombinase activity.
The test system is the same in assay [7]. The assay is described as follows: Tetracaine-induced binding of FITC-conjugated annexin A5.
The subject of assay [8] is platelets from a patient with Scott syndrome. Put plainly: Prothrombinase activity of platelets from a patient with Scott syndrome. To be noted: valinomycin 3 μmol/L; collagen plus thrombin stimulation; FIG. 5. The procedure: For experiments with platelets from a patient with Scott syndrome, freshly obtained citrated blood from the patient and a control was shipped by airmail and platelets were isolated and used for experiments immediately upon arrival (approx 24 hours after blood donation).
as §2
In FIG. 5, the effect of valinomycin on collagen plus thrombin induced procoagulant activity of platelets from a patient with Scott syndrome is shown. Prothrombinase activities, expressed as nmol/L thrombin formed per minute, were determined after activation with collagen (10 μg/ml) plus thrombin (4 nmol/L) in the absence (black bars) and presence (hatched bars) of valinomycin (3 μmol/L). Data are mean values±1 S.D. (n=6).

Setting [9] is: collagen 10 μg/mL plus thrombin 4 nmol/L, concentration as given in row.

The source of these data is patent US20090186810A1, “POTASSIUM CHANNEL MODULATORS AND PLATELET PROCOAGULANT ACTIVITY” (priority 2006, published 2009).

“Also recorded” adds a separate entry of the source. Where two headings read alike, the source gives them in different places.

Broadly, the inhibition is the drop in the measured response relative to a control, in per cent. For the compound `Clc1ccccc1C(c1ccccc1)(c1ccccc1)n1ccnc1` [clotrimazol, 1-[(2-chlorophenyl)diphenylmethyl]-1H-imidazole], in assay [1] (Homo sapiens, Platelet, read-out: inhibition of the prothrombinase activity of collagen and thrombin activated platelets), the inhibition at 10 µM came to 46 ± 13%. In addition, in assay [2], the “extent of annexin binding (mean fluorescence intensity) of the residual PS positive platelets” value is “remains at the same level” and the “number of PS-exposing (annexin-positive) platelets” value is recorded as “decreased”. In assay [3], the “Aggregation % of control (±S.D.)” value was 90.0 ± 2.8 % of control. Also, in assay [3] (collagen plus thrombin induced, aggregation and ATP release together), the “effect on aggregation or release, in words” value is “Neither high extracellular [K^+], nor the presence of clotrimazol or charybdotoxin showed an appreciable effect”. In assay [4], the “Release (ATP) % of control (±S.D.)” value is 91.3 ± 5.0 % of control. Besides, the “Δ[Ca2+]i” value in assay [5] (5 minutes after stimulation with collagen plus thrombin, clotrimazol 10 μmol/L, charybdotoxin 20 nmol/L, control 364±18) turned out to be 275 ± 10 nmol/L. Moreover, the “reduction of the increase in [Ca2+]i versus absence of inhibitors” value in assay [5] (clotrimazol 10 μmol/L) stood at 24%. For the same compound, in assay [6], the “inhibition of tetracaine-induced prothrombinase activity” value was “neither clotrimazol nor charybdotoxin could inhibit”. Moreover, the “inhibition of tetracaine-induced binding of FITC-conjugated annexin A5” value in assay [7] is reported as “neither clotrimazol nor charybdotoxin could inhibit”.
In the case of `C=C[C@H]1CN2CC[C@H]1C[C@H]2[C@H](O)c1ccnc2ccc(OC)cc12.Cl` [quinine, quinine hydrochloride], the “Aggregation % of control (±S.D.)” value in assay [3] (setting [9]) is 40.0 ± 3.0 % of control. The “inhibition of the aggregation” value in assay [3] (collagen plus thrombin induced) was “approximately 60%”. Moreover, the “Release (ATP) % of control (±S.D.)” value in assay [4] (setting [9]) is given as 90.1 ± 4.1 % of control. In addition, the “effect on the release, in words” value in assay [4] (collagen plus thrombin induced) was “only a minor effect”.
In the case of `CC(C)[C@@H]1NC(=O)[C@H](C)OC(=O)[C@@H](C(C)C)NC(=O)[C@@H](C(C)C)OC(=O)[C@H](C(C)C)NC(=O)[C@H](C)OC(=O)[C@@H](C(C)C)NC(=O)[C@@H](C(C)C)OC(=O)[C@H](C(C)C)NC(=O)[C@H](C)OC(=O)[C@@H](C(C)C)NC(=O)[C@@H](C(C)C)OC1=O` [valinomycin], in assay [1] (addition of valinomycin, data not shown), the “reversal of the inhibition of the procoagulant response by high extracellular [K+]” value is “not reversed”. For the same compound, the “reversal of the inhibitory effect of quinine on procoagulant response” value in assay [1] (valinomycin 3 μmol/L, HEPES buffer, FIGS. 2A and B) is “partially abolished”. Also, the “reversal of the inhibition of procoagulant response caused by clotrimazol and charybdotoxin” value in assay [1] (valinomycin 3 μmol/L, HEPES buffer, FIGS. 2A and B (prothrombinase and annexin)) is given as “completely reversed”. Further, the “procoagulant response of platelets in the absence of a stimulus” value in assay [1] (valinomycin itself) is given as “did not cause a procoagulant response”. In addition, in assay [2] (presence of valinomycin, HEPES/Choline buffer, annexin A5 binding, FIG. 4), the “reversal of the inhibition by clotrimazol and charybdotoxin in HEPES/Choline” value is reported as “virtually annihilated”. The “Δ[Ca2+]i with valinomycin in clotrimazol-preincubated platelets” value in assay [5] (clotrimazol 10 μmol/L plus valinomycin, 5 minutes after collagen plus thrombin) was 326 ± 34 nmol/L. The “procoagulant response (prothrombinase activity) of Scott syndrome platelets, in words” value in assay [8] is on record as “significant increase; also recorded: partially restored”.
For “iberiotoxin (QFTDVDCSVSKECWSVCKDLFGVDRGKCMGKKCRCYQ; UniProt P24663 1-37, looked up)”, in assay [1] (iberiotoxin 200 nmol/L, apamin 500 nmol/L), the “effect on collagen plus thrombin-induced procoagulant (prothrombinase) activity, in words” value was “without effect”.
